This note sets out measurements from patent US10000473B2, “Indazole derivatives useful as glucagon receptor antagonists” (Janssen Pharmaceutica NV, priority 2016, dated 2018).

A value given as a limit tells only on which side of the number the result lay.

T1 sequence (P47871 26-477): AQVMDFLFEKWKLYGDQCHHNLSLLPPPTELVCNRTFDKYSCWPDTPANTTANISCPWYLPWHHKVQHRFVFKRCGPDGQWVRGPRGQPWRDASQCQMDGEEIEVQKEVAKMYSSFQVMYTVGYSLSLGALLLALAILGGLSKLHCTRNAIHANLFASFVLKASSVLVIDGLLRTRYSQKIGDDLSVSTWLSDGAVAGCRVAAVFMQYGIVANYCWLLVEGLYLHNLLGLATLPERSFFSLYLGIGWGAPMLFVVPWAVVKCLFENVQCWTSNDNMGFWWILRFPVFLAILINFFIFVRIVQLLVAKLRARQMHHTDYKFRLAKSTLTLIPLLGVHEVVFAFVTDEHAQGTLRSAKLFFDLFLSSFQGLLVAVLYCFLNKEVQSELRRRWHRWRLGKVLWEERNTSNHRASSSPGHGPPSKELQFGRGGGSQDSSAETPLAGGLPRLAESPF

The experiment concerns the target T1, human GCGR (Homo sapiens, UniProt P47871).
T1 construct: expressed in transfected cells; host or cells: HEK293 (hGluc-1HEK), pcDNA3.1, G418 selection
Nature of the experiment: Cellular functional assay, cAMP readout (glucagon-stimulated cAMP, LANCE TR-FRET). Format: cell-based. The settings on record: HEK293 cells stably expressing full-length human GCGR; glucagon 100 pM; IC50 converted to Ki; read-out: Inhibition of cAMP Ki.
In general, Ki refers to the dissociation constant of the complex between target and ligand, obtained from inhibition or displacement. On to `Cc1cc(Cl)ccc1-c1ccc2nn(C(CC(C)C)c3ccc(C(=O)NCCC(=O)O)nc3)cc2c1` (stereo not shown) [Compound #252, 3-(5-(1-(5-(4-Chloro-2-methylphenyl)-2H-indazol-2-yl)-3-methylbutyl)picolinamido)propanoic acid], for which the Ki worked out at 271 nM. Then `CC(C)(F)CC(c1ccc(C(=O)NCCC(=O)O)cc1)n1cc2cc(-c3ccc(C(F)(F)F)cc3)ccc2n1` (stereo not shown) [Compound #256, 3-(4-(3-Fluoro-3-methyl-1-(5-(4-(trifluoromethyl)phenyl)-2H-indazol-2-yl)butyl)benzamido)propanoic acid], with 200 nM; and `Cc1cc(C(F)(F)F)ccc1-c1ccc2c(cnn2C(CC(C)C)c2ccc(C(=O)NCCC(=O)O)nc2)c1C` (stereo not shown) [Compound #258, 3-(5-(3-Methyl-1-(4-methyl-5-(2-methyl-4-(trifluoromethyl)phenyl)-1H-indazol-1-yl)butyl)picolinamido)propanoic acid], with 65 nM.

Regarding `Cc1cc2c(cnn2C(CC(C)C)c2ccc(C(=O)NCCC(=O)O)nc2)cc1-c1ccc(C(F)(F)F)cc1Cl` (stereo not shown) [Compound #259, 3-[[5-[1-[5-[2-Chloro-4-(trifluoromethyl)phenyl]-6-methyl-indazol-1-yl]-3-methyl-butyl]pridine-2-carbonyl]amino]propanoic acid], the Ki stood at 37 nM. Then `CC(C)CC(c1ccc(C(=O)NCCC(=O)O)nc1)n1cc2cc(-c3cc4ccccc4o3)ccc2n1` (stereo not shown) [Compound #260, 3-(5-(1-(5-(Benzofuran-2-yl)-2H-indazol-2-yl)-3-methylbutyl)picolinamido)propanoic acid], with 135 nM. Then `Cc1cc(C(F)(F)F)ccc1-c1cc2cnn(C(CC(C)C)c3ccc(C(=O)NCCC(=O)O)cc3)c2cc1Cl` (stereo not shown) [Compound #261, 3-[[4-[1-[6-Chloro-5-[2-methyl-4-(trifluoromethyl)phenyl]indazol-1-yl]-3-methyl-butyl]benzoyl]amino]propanoic acid], with 105 nM; and `CC(C)CCC(c1ccc(C(=O)NCCC(=O)O)cc1)n1cc2cc(-c3ccc(C(F)(F)F)cc3)ccc2n1` (stereo not shown) [compound 27], with 105 nM; and `Cc1ccc2sc(-c3ccc4nn(C(CC(C)C)c5ccc(C(=O)NCCC(=O)O)cc5)cc4c3)cc2c1` (stereo not shown) [compound 28], with 260 nM.

Consider `O=C(O)CCNC(=O)c1ccc(C(CC2CC2)n2ncc3cc(-c4ccc(C(F)(F)F)cc4)ccc32)cc1` (stereo not shown) [compound 32], for which the Ki amounted to 330 nM. In the case of `CC(C)CC(c1ccc(C(=O)NCCC(=O)O)cc1)n1ncc2cc(-c3cnc4ccccc4c3)ccc21` (stereo not shown) [compound 46] it was 750 nM. In the case of `CC(C)CC(c1ccc(C(=O)NCCC(=O)O)nc1)n1ncc2cc(-c3cc4ccccc4s3)ccc21` (stereo not shown) [compound 48] it was 470 nM. Then `CC(C)CC(c1ccc(C(=O)NCCC(=O)O)cc1)n1cc2cc(-c3ccsc3)ccc2n1` (stereo not shown) [compound 51], with 750 nM. Consider `CC(C)CC(c1ccc(C(=O)NCCC(=O)O)cc1)n1cc2cc(-c3cc4ccc(F)cc4s3)ccc2n1` (stereo not shown) [compound 57], for which the Ki came out at 170 nM. Then `CC(C)CCC(c1ccc(C(=O)NCCC(=O)O)cc1)n1ncc2cc(-c3ccc(C(F)(F)F)cc3)ccc21` (stereo not shown) [compound 59], with 155 nM; and `CCCC(c1ccc(C(=O)NCCC(=O)O)cc1)n1ncc2cc(-c3ccc(C(F)(F)F)cc3)ccc21` (stereo not shown) [compound 60], with 300 nM; and `CC(C)(C)CC(c1ccc(C(=O)NCCC(=O)O)cc1)n1cc2cc(-c3ccc(C(F)(F)F)cc3)ccc2n1` (stereo not shown) [compound 61], with 52 nM. In the case of `Cc1ccc2cc(-c3ccc4c(cnn4C(CC(C)C)c4ccc(C(=O)NCCC(=O)O)cc4)c3)sc2c1` (stereo not shown) [compound 62] it was 230 nM. Then `O=C(O)CCNC(=O)c1ccc(C(CCC(F)(F)C(F)(F)F)n2cc3cc(-c4ccc(C(F)(F)F)cc4)ccc3n2)cc1` (stereo not shown) [compound 65], with 240 nM; and `CC(C)CC(c1ccc(C(=O)NCCC(=O)O)cc1)n1ncc2cc(-c3ccc4ccccc4c3)ccc21` (stereo not shown) [compound 71], with 190 nM. As to `Cc1cc(-c2ccc(C(C)(C)C)cc2)cc2cnn(C(CC(C)C)c3ccc(C(=O)NCCC(=O)O)nc3)c12` (stereo not shown) [compound 72], the Ki is over 2600 nM.

`CC(C)CC(c1ccc(C(=O)NCCC(=O)O)cc1)n1ncc2cc(-c3cc4ccccc4s3)ccc21` (stereo not shown) [compound 73]: the Ki worked out at 62 nM.

With `CC(C)CC(c1ccc(C(=O)NCCC(=O)O)nc1)n1ncc2cc(-c3ccc(C(F)(F)F)cc3)ccc21` (stereo not shown) [compound 74], the Ki was found to be 255 nM. In the case of `CC(C)CC(c1ccc(C(=O)NCCC(=O)O)cc1)n1ncc2cc(-c3cc4ccccc4o3)ccc21` (stereo not shown) [compound 77] it was 135 nM; in that of `CC(C)CC(c1ccc(C(=O)NCCC(=O)O)cc1)n1cc2cc(-c3ccc4cnn(C)c4c3)ccc2n1` (stereo not shown) [compound 80], 340 nM. Then `COc1ccc2cc(-c3ccc4nn(C(CC(C)C)c5ccc(C(=O)NCCC(=O)O)cc5)cc4c3)ccc2c1` (stereo not shown) [compound 82], with over 1300 nM; and `CCCCCCC(c1ccc(C(=O)NCCC(=O)O)cc1)n1cc2cc(-c3ccc(C(C)(C)C)cc3)ccc2n1` (stereo not shown) [compound 86], with 136 nM; and `CCCCCC(c1ccc(C(=O)NCCC(=O)O)cc1)n1ncc2cc(-c3ccc(C(C)(C)C)cc3)ccc21` (stereo not shown) [compound 88], with 255 nM. Take `CCCCCC(c1ccc(C(=O)NCCC(=O)O)cc1)n1ncc2cc(-c3ccc(C(F)(F)F)cc3)ccc21` (stereo not shown) [compound 89]: the Ki stood at 130 nM. Then `CCCC(c1ccc(C(=O)NCCC(=O)O)cc1)n1cc2cc(-c3ccc(C(F)(F)F)cc3)ccc2n1` (stereo not shown) [compound 91], with 125 nM. With `O=C(O)CCNC(=O)c1ccc(C(CC2CCCCC2)n2cc3cc(-c4ccc(C(F)(F)F)cc4)ccc3n2)cc1` (stereo not shown) [compound 92], the Ki stood at 63 nM.

Take `CC(C)CC(c1ccc(C(=O)NCCC(=O)O)nc1)n1cc2cc(-c3cc4ccccc4s3)ccc2n1` (stereo not shown) [compound 96]: the Ki was found to be 92 nM. In the case of `O=C(O)CCNC(=O)c1ccc(C(C2CCCCC2)n2cc3cc(-c4ccc(C(F)(F)F)cc4Cl)ccc3n2)cc1` (stereo not shown) [compound 98], the Ki worked out at 83 nM. Then `O=C(O)CCNC(=O)c1ccc(C(CCC(F)(F)C(F)(F)F)n2ncc3cc(-c4ccc(C(F)(F)F)cc4)ccc32)cc1` (stereo not shown) [compound 100], with 550 nM; and `Cc1cc(-c2ccc(C(C)(C)C)cc2)cc2cn(C(CC(C)C)c3ccc(C(=O)NCCC(=O)O)nc3)nc12` (stereo not shown) [compound 108], with 1340 nM.

For the molecule `CC(C)CC(c1ccc(C(=O)NCCC(=O)O)cc1)n1ncc2cc(-c3ccc4cnn(C)c4c3)ccc21` (stereo not shown) [compound 116], the inhibition constant (Ki) was found to be 750 nM. Then `CC(C)CC(c1ccc(C(=O)NCCC(=O)O)cc1)n1cc2cc(-c3cnc4ccccc4c3)ccc2n1` (stereo not shown) [compound 117], with 1000 nM. Then `CC(C)CC(c1ccc(C(=O)NCCC(=O)O)nc1)n1ncc2cc(-c3cc(Cl)cc(Cl)c3)ccc21` (stereo not shown) [compound 119], with over 2600 nM. In the case of `CC(C)CC(c1ccc(C(=O)NCCC(=O)O)cc1)n1cc2cc(-c3cc4ccccc4s3)ccc2n1` (stereo not shown) [compound 120] it was 58 nM. For the molecule `CC(C)CC(c1ccc(C(=O)NCCC(=O)O)cc1)n1cc2cc(-c3ccc4ncccc4c3)ccc2n1` (stereo not shown) [compound 121], the Ki was 700 nM. Then `CC(C)CCn1cc(-c2ccc3c(cnn3C(CC(C)C)c3ccc(C(=O)NCCC(=O)O)cc3)c2)cn1` (stereo not shown) [compound 123], with over 5200 nM.
